# In patent US20040198815A1, “Antimicrobial and anticancer properties of methyl-beta-orcinolcarboxylate from lichen (Everniastrum cirrhatum)” (priority 2003, published 2004):
# What was measured:
# [1] = test system: Saccharomyces cerevisiae erg 6 (amphotericin and nystatin resistant); details: 80 μg/disc
# Experimental: (§1) The drug resistance property of the mutants was studied by standardized disc diffusion assay (Bauer at al 1966, American Journal of Clinical Pathology 45: 493-496) with slight modifications. The discs were prepared (5 mm diameter made of Whatman #3 filter paper) by impregnating 8 μl of test compound and placing them on pre-inoculated agar surface.
# (§2) A disc containing only the solvent was used as the control. A zone of growth inhibition surrounding the disc is indicative of the […] nature of the strains to antibiotics.
# (§3) The pure compound isolated was then tested against polyene and azole resistant strains of Candida albicans. […] In another experiment well-defined amphotericin and nystatin resistant strains of Saccharomyces cerevisiae were used in the assay. These strains designated as erg 2 and erg 6 carry mutations in the ergosterol biosynthetic pathway and therefore are unable to synthesize ergosterol which are the binding site of polyene drugs. Therefore absence of erostreol results in polyene resistance.
# [2] = test system: Saccharomyces cerevisiae erg 2 (amphotericin and nystatin resistant); test: disc diffusion assay, S. cerevisiae erg 2; details: 80 μg/disc
# Experimental: as §1, §2, §3
# [3] = test system: Saccharomyces Cerevisiae ABC 287 (WT); test: disc diffusion assay, wild type Saccharomyces cerevisiae; assay type: cell-based; details: 80 μg/disc; for zone of inhibition at 80 µg/disc: read-out: Net zone of growth inhibition
# Experimental: as §1, §2, §3
# [4] = test system: Candida albicans MTCC 1637 (Wild Type); test: disc diffusion assay, wild type Candida albicans; assay type: cell-based; details: for zone of inhibition at 80 µg/disc: MTCC1637, read-out: Net zone of growth inhibition
# Experimental: as §1, §2
# [5] = test system: Candida albicans mutant strain Amph C6R; test: microbe, parasite or virus in culture; assay type: cell-based
# Experimental: (§4) C. albicans was grown to log phase in Sabouraud's dextrose broth (5 ml) for 48 hrs at 37° C. in a shaker at 250 rpm. The cells were pelleted by centrifugation at 5000 rpm at 4° C. and the pellet was dissolved in 5 ml phosphate buffered saline PBS (6.8 pH). The culture was divided in to five groups of 1 ml each in eppendrof tubes.
# (§5) Ethyl methane sulfonate (EMS) was added to each of the culture tube @ 0.1% (v/v) and allowed to grow for 40 min. Then the mutagen was completely washed off thrice by repeatedly pelleting the cells and re-dissolving in PBS. The mutagenized stocks was then diluted in Sabouraud's dextrose broth two folds and allowed to grow for 6 hrs at 37° C. in a shaker at 250 rpm. Titre of the cells before treatment with EMS and immediately after treatment with EMS was calculated to obtain the killing percentage in each of the five tubes. The mutagenized and fixed cultures were then plated in Sabouraud's dextrose agar containing different concentration of amphotericin, nystatin and clotrimazole.
# (§6) The colonies found growing after 5th day from each of the five mutagenized stocks were then purified thrice separately by streaking in the same medium containing the antibiotics.
# [6] = test system: Candida albicans mutant strain NYS 26R; test: microbe, parasite or virus in culture; assay type: cell-based
# Experimental: as §4, §5, §6
# [7] = test system: Candida albicans mutant strain Clo 31R; test: microbe, parasite or virus in culture; assay type: cell-based
# Experimental: as §4, §5, §6
# [8] = test system: Candida albicans mutant strain Amph D1R; test: microbe, parasite or virus in culture; assay type: cell-based
# Experimental: as §4, §5, §6
# [9] = test system: Candida albicans mutant strain NYS 4R; test: microbe, parasite or virus in culture; assay type: cell-based
# Experimental: as §4, §5, §6
# [10] = test system: Candida albicans mutant strain Clo 28R; test: microbe, parasite or virus in culture; assay type: cell-based
# Experimental: as §4, §5, §6
# [11] = test system: Candida albicans mutant strain Amph C7R; test: microbe, parasite or virus in culture; assay type: cell-based
# Experimental: as §4, §5, §6
# [12] = test system: Candida albicans mutant strain Amph A8R; test: microbe, parasite or virus in culture; assay type: cell-based
# Experimental: as §4, §5, §6
# [13] = test system: Candida albicans mutant strain Amph 100R; test: disc diffusion assay, mutant Amph 100R; assay type: cell-based; details: for zone of inhibition at 80 µg/disc: Candida albicans, read-out: Net zone of growth inhibition
# Experimental: as §4, §5, §6
# [14] = test system: polyene drug resistant Saccharomyces cerevisiae; test: activity against polyene resistant S. cerevisiae (as a group); assay type: cell-based; details: erg 2 and erg 6 strains
# Source text: Therefore absence of erostreol results in polyene resistance.
# [15] = test system: ovarian (PA-1) cancer cell line; test: MTT cytotoxicity testing in vitro, PA-1; assay type: cell-based; details: Homo sapiens, 6 h exposure then 48 h
# Experimental: (§7) Cytotoxicity testing in vitro was done by the method of Woerdenbag et al.,1993; J.Nat.Prod. 56 (6): 849-856). 2×10^3 cells/well were incubated in the 5% CO2 incubator for 24 h to enable them to adhere properly to the 96 well polysterene microplate (Grenier, Germany). Test compounds dissolved in 100% DMSO (Merck, Germany) in at least five doses were added and left for 6 h after which the compound plus media was replaced with fresh media and the cells were incubated for another 48 h in the CO2 incubator at 37° C. […] Sigma M 2128] was added, and plates were incubated at 37° C. for 4 h. 100 μl dimethyl sulfoxide (DMSO, Merck, Germany) were added to all wells and mixed thoroughly to dissolve the dark blue crystals. After a few minutes at mom temperature to ensure that all is crystals were dissolved, the plates were read on a SpectraMax 190 Mcroplate Elisa reader (Molecular Devices Inc., USA), at 570 nm. Plates were normally read within 1 h of adding the DMSO.
# Saccharomyces cerevisiae = details: Caccamese et al (1985); cited from earlier work
# [16] = test system: polyene and azole resistant strains of Candida albicans; assay type: cell-based
# Experimental: Ethanol extract was prepared and tested against Candida albicans MTCC 1637 (equivalent to ATCC 18804) the fungi that cause different forms of candidiasis in humans and drug resistant mutants of the fungi.
# (MCF-7) cancer cell line = test: MTT cytotoxicity testing in vitro, MCF-7; assay type: cell-based; details: Homo sapiens, MCF7, 6 h exposure then 48 h
# Experimental: as §7
# [17] = test system: ovarian (MCF-7) cancer cell line; test: MTT cytotoxicity testing in vitro, MCF-7; assay type: cell-based; details: Homo sapiens, MCF7, 6 h exposure then 48 h
# Experimental: as §7
# [18] = test system: oral (KB 403) cancer cell line; test: MTT cytotoxicity testing in vitro, KB 403; assay type: cell-based; details: Homo sapiens, KB403, 6 h exposure then 48 h
# Experimental: as §7
# [19] = test system: liver (WRL-68) cancer cell line; test: MTT cytotoxicity testing in vitro, WRL-68; assay type: cell-based; details: Homo sapiens, WRL68, 6 h exposure then 48 h
# Experimental: as §7
# [20] = in-vitro ergosterol binding assay
# Source text: Therefore, the ability of lichen compounds to bind to ergosterol was also investigated using in-vitro ergosterol binding assay (Antonio & Molinski 1993; J.Natl.Prod.56:54-61).
# [21] = test system: colon (Caco-2) cancer cell line; test: MTT cytotoxicity testing in vitro, Caco-2; assay type: cell-based; details: Homo sapiens, Caco2, 6 h exposure then 48 h
# Experimental: Cytotoxicity testing in vitro was done by the method of Woerdenbag et al.,1993; J.Nat.Prod. […] 2×10^3 cells/well were incubated in the 5% CO2 incubator for 24 h to enable them to adhere properly to the 96 well polysterene microplate (Grenier, Germany). […] Then, 10 μl MTT [3-(4,5-dimethylthiazol-2-yl)-2,5-diphenyltetrazolium bromide; Sigma M 2128] was added, and plates were incubated at 37° C. for 4 h. 100 μl dimethyl sulfoxide (DMSO, Merck, Germany) were added to all wells and mixed thoroughly to dissolve the dark blue crystals. […] Plates were normally read within 1 h of adding the DMSO.
# [22] = Candida albicans MTCC (Wild Type), 80 μg/disc
# [23] = Candida albicans, read-out: Net zone of growth inhibition
smiles,measurement,setting,value
C[C@@H]1[C@H](O)[C@@H](C)/C=C/C=C/CC/C=C/C=C/C=C/C=C/C(O[C@H]2O[C@H](C)[C@@H](O)[C@H](N)[C@@H]2O)CC2O[C@](O)(CC(O)C(O)CCC(O)CC(O)CC(O)CC(=O)O[C@H]1C)CC(O)C2C(=O)O (some centres unmarked) [Nystatin],Net zone of growth inhibition,[1],13 mm
same,Net zone of growth inhibition,[2],16 mm
same,Net zone of growth inhibition,[3],23 mm
same,Net zone of growth inhibition,[4]; [22],22 mm
same,Net zone of growth inhibition,"[5]; Amph C6R, 80 μg/disc",4 mm
same,Net zone of growth inhibition,"[6]; NYS 26R, 80 μg/disc",9 mm
same,Net zone of growth inhibition,"[7]; Clo 31R, 80 μg/disc",17 mm
same,Net zone of growth inhibition,"[8]; Amph D1R, 80 μg/disc",4 mm
same,Net zone of growth inhibition,"[9]; NYS 4R, 80 μg/disc",8 mm
same,Net zone of growth inhibition,"[10]; Clo 28R, 80 μg/disc",21 mm
same,Net zone of growth inhibition,"[11]; Amph C7R, 80 μg/disc",2 mm
same,Net zone of growth inhibition,"[12]; Amph A8R, 80 μg/disc",3 mm
same,Net zone of growth inhibition,"[13]; Amph 100R, 80 μg/disc",13 mm
C[C@@H]1[C@H](O)[C@@H](C)/C=C/C=C/C=C/C=C/C=C/C=C/C=C/[C@H](O[C@@H]2O[C@H](C)[C@@H](O)[C@H](N)[C@@H]2O)C[C@@H]2O[C@](O)(C[C@@H](O)C[C@@H](O)[C@H](O)CC[C@@H](O)C[C@@H](O)CC(=O)O[C@H]1C)C[C@H](O)[C@H]2C(=O)O [Amphotericin],Net zone of growth inhibition,[1],5 mm
same,Net zone of growth inhibition,[2],6 mm
same,zone of inhibition at 80 µg/disc,[3],8 mm
same,zone of inhibition at 80 µg/disc,[4]; [22],9 mm
same,zone of inhibition at 80 µg/disc,[6]; [23],4 mm
same,zone of inhibition at 80 µg/disc,[7]; [23],6 mm
same,zone of inhibition at 80 µg/disc,[9]; [23],2 mm
same,zone of inhibition at 80 µg/disc,[10]; [23],12 mm
same,zone of inhibition at 80 µg/disc,[13],2 mm
"COC(=O)c1c(C)cc(O)c(C)c1O [Methyl-β-orcinolcarboxylate, methyl-β-orcinolcarboxylate]",growth inhibition of polyene drug resistant Saccharomyces cerevisiae (in words),[14],able to specifically inhibit the growth
same,IC50,[15],0.025 µg/mL
same,IC90,[15],4 µg/mL
same,growth inhibition of yeast strains such as Saccharomyces cerevisiae (in words),Saccharomyces cerevisiae,inhibit the growth
same,activity against drug resistant strains of C. albicans (in words),[16],able to inhibit the growth of drug resistant strains in a dose dependant manner
same,Net zone of growth inhibition,[1],6 mm
same,Net zone of growth inhibition,[2],6 mm
same,zone of inhibition at 80 µg/disc,[3],2 mm
same,IC50,(MCF-7) cancer cell line,1 µg/mL
same,IC90,[17],5.5 µg/mL
same,IC50,[18],0.04 µg/mL
same,IC90,[18],4.5 µg/mL
same,IC50,[19],1 µg/mL
same,IC90,[19],5 µg/mL
same,growth inhibition of the wild type strain (in words),[4]; wild type Candida albicans,inactive
same,zone of inhibition at 40 µg/disc,[5]; [23],2 mm
same,zone of inhibition at 80 µg/disc,[5]; [23],4 mm
same,zone of inhibition at 320 µg/disc,[5]; [23],5 mm
same,zone of inhibition at 40 µg/disc,[6]; [23],2 mm
same,zone of inhibition at 80 µg/disc,[6]; [23],6 mm
same,zone of inhibition at 320 µg/disc,[6]; [23],8 mm
same,zone of inhibition at 80 µg/disc,[7]; [23],3 mm
same,zone of inhibition at 320 µg/disc,[7]; [23],4 mm
same,zone of inhibition at 80 µg/disc,[8]; [23],4 mm
same,zone of inhibition at 320 µg/disc,[8]; [23],6 mm
same,zone of inhibition at 40 µg/disc,[9]; [23],2 mm
same,zone of inhibition at 80 µg/disc,[9]; [23],7 mm
same,zone of inhibition at 320 µg/disc,[9]; [23],8 mm
same,zone of inhibition at 80 µg/disc,[10]; [23],4 mm
same,zone of inhibition at 320 µg/disc,[10]; [23],6 mm
same,zone of inhibition at 40 µg/disc,[11]; [23],2 mm
same,zone of inhibition at 80 µg/disc,[11]; [23],5 mm
same,zone of inhibition at 320 µg/disc,[11]; [23],7 mm
same,zone of inhibition at 40 µg/disc,[12]; [23],1 mm
same,zone of inhibition at 80 µg/disc,[12]; [23],2 mm
same,zone of inhibition at 320 µg/disc,[12]; [23],4 mm
same,ergosterol-binding property,[20],does not possess ergosterol-binding property
same,IC50,[21],1.5 µg/mL
same,IC90,[21],3.5 µg/mL
"Clc1ccccc1C(c1ccccc1)(c1ccccc1)n1ccnc1 [Clotrimazole, reference compound]",zone of inhibition at 80 µg/disc,[4]; [22],17 mm
same,zone of inhibition at 80 µg/disc,[5]; [23],10 mm
same,zone of inhibition at 80 µg/disc,[6]; [23],19 mm
same,zone of inhibition at 80 µg/disc,[7]; [23],11 mm
same,zone of inhibition at 80 µg/disc,[8]; [23],27 mm
same,zone of inhibition at 80 µg/disc,[9]; [23],20 mm
same,zone of inhibition at 80 µg/disc,[10]; [23],14 mm
same,zone of inhibition at 80 µg/disc,[11]; [23],12 mm
same,zone of inhibition at 80 µg/disc,[12]; [23],22 mm
same,zone of inhibition at 80 µg/disc,[13],25 mm
